Laboratory results: PubChem BioAssay AID328 (DTP/NCI, 2004)
“And” between values parts separate entries of the source, which are not always exact repeats. Identical values can stand only once. Inconclusive results and toxic doses are left out.

Tested on: BDF1 mice, P388 leukemia ip, median survival T/C
Test: NCI In Vivo Anticancer Drug Screen. Data for tumor model P388 Leukemia (intraperitoneal) in B6D2F1 (BDF1) mice
Settings: endpoint: median survival time, higher = longer survival
How it was run: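 In tumour-bearing mice, survival after compound treatment is set against the vehicle group and given as a quotient.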

[1] = dose: 25.0 mg/kg/injection, schedule: Q01DX009 (ip), vehicle: saline with Tween-80
[2] = dose: 50.0 mg/kg/injection, schedule: Q01DX009 (ip), vehicle: saline with Tween-80
[3] = dose: 100.0 mg/kg/injection, schedule: Q01DX009 (ip), vehicle: saline with Tween-80
[4] = dose: 200.0 mg/kg/injection, schedule: Q01DX009 (ip), vehicle: saline with Tween-80
[5] = dose: 50.0 mg/kg/injection, schedule: Q01DX009 (ip), vehicle: saline
[6] = dose: 100.0 mg/kg/injection, schedule: Q01DX009 (ip), vehicle: saline
[7] = dose: 100.0 mg/kg/injection, schedule: Q04DX003 (ip), vehicle: saline
[8] = dose: 200.0 mg/kg/injection, schedule: Q01DX009 (ip), vehicle: saline
[9] = dose: 200.0 mg/kg/injection, schedule: Q04DX003 (ip), vehicle: saline
[10] = dose: 100.0 mg/kg/injection, schedule: Q01DX009 (ip), vehicle: Klucel (hydroxypropylcellulose) (HPC)
[11] = dose: 200.0 mg/kg/injection, schedule: Q01DX009 (ip), vehicle: Klucel (hydroxypropylcellulose) (HPC)

## CC1(C)N=C(N)N=C(N)N1c1cccc(CC(=O)Nc2ccc(S(=O)(=O)F)cc2)c1
[1]
  T/C: 120 % of control
[2]
  T/C: 155 % of control
[3]
  T/C: 175 % of control
[4]
  T/C: 170 % of control

## CCCCCCCCCCCCCC/[N+]([O-])=C/c1ccc([N+](=O)[O-])o1
dose: 6.25 mg/kg/injection, schedule: Q04DX002 (ip), vehicle: saline with Tween-80
  T/C: 91 % of control
dose: 12.5 mg/kg/injection, schedule: Q04DX002 (ip), vehicle: saline with Tween-80
  T/C: 100 % of control
dose: 25.0 mg/kg/injection, schedule: Q04DX002 (ip), vehicle: saline with Tween-80
  T/C: 87 % of control
dose: 200.0 mg/kg/injection, schedule: Q04DX002 (ip), vehicle: saline with Tween-80
  T/C: 88 % of control

## O=c1c2cccc3cccc(c32)c2nc3ccccc3n12
dose: 4.0 mg/kg/injection, schedule: Q01DX009 (ip), vehicle: saline with Tween-80
  T/C: 100 % of control
dose: 6.0 mg/kg/injection, schedule: Q01DX009 (ip), vehicle: saline with Tween-80
  T/C: 108 % of control
dose: 6.25 mg/kg/injection, schedule: Q04DX003 (ip), vehicle: saline with Tween-80
  T/C: 87 % of control
dose: 12.5 mg/kg/injection, schedule: Q04DX003 (ip), vehicle: saline with Tween-80
  T/C: 95 % of control
dose: 25.0 mg/kg/injection, schedule: Q04DX003 (ip), vehicle: saline with Tween-80
  T/C: 112 % of control

## CC1(C)O[Te]2(OC1(C)C)OC(C)(C)C(C)(C)O2
dose: 12.5 mg/kg/injection, schedule: Q01DX001 (ip), vehicle: saline with Tween-80
  T/C: 104 % of control
dose: 25.0 mg/kg/injection, schedule: Q01DX001 (ip), vehicle: saline with Tween-80
  T/C: 113 % of control

## O=C(O)c1ccccc1N=Cc1ccccc1O
dose: 176.0 mg/kg/injection, schedule: Q04DX003 (ip), vehicle: saline with Tween-80
  T/C: 109 % of control
dose: 264.0 mg/kg/injection, schedule: Q04DX003 (ip), vehicle: saline with Tween-80
  T/C: 109 % of control
dose: 400.0 mg/kg/injection, schedule: Q04DX003 (ip), vehicle: saline with Tween-80
  T/C: 109 % of control

## CC(=O)Nc1ccc(S(=O)(=O)SC(F)(F)F)cc1
dose: 3.13 mg/kg/injection, schedule: Q01DX010 (ip), vehicle: saline
  T/C: 100 % of control
dose: 6.25 mg/kg/injection, schedule: Q01DX010 (ip), vehicle: saline
  T/C: 104 % of control
dose: 12.5 mg/kg/injection, schedule: Q01DX010 (ip), vehicle: saline
  T/C: 100 % of control

## O=C(O)c1ccc2cc(O)ccc2c1
dose: 50.0 mg/kg/injection, schedule: Q01DX001 (ip), vehicle: saline with Tween-80
  T/C: 100 % of control
[5]
  T/C: 116 % of control
dose: 50.0 mg/kg/injection, schedule: Q04DX003 (ip), vehicle: saline
  T/C: 109 % of control
dose: 100.0 mg/kg/injection, schedule: Q01DX001 (ip), vehicle: saline with Tween-80
  T/C: 113 % of control
[6]
  T/C: 116 % of control
[7]
  T/C: 109 % of control
dose: 200.0 mg/kg/injection, schedule: Q01DX001 (ip), vehicle: saline with Tween-80
  T/C: 100 % of control
[8]
  T/C: 104 % of control
[9]
  T/C: 100 % of control

## C=CC(=O)NCCC(=O)O
[5]
  T/C: 100 % of control
[6]
  T/C: 90 % of control
[8]
  T/C: 94 % of control

## Cc1cc2nc(C)c(=O)[nH]c2cc1C
[10]
  T/C: 100 % of control
dose: 100.0 mg/kg/injection, schedule: Q04DX003 (ip), vehicle: Klucel (hydroxypropylcellulose) (HPC)
  T/C: 95 % of control
[11]
  T/C: 95 % of control
dose: 200.0 mg/kg/injection, schedule: Q04DX003 (ip), vehicle: Klucel (hydroxypropylcellulose) (HPC)
  T/C: 95 % of control
dose: 400.0 mg/kg/injection, schedule: Q04DX003 (ip), vehicle: Klucel (hydroxypropylcellulose) (HPC)
  T/C: 95 % of control

## CO/N=C/c1cccnc1
dose: 50.0 mg/kg/injection, schedule: Q01DX005 (ip), vehicle: saline
  T/C: 101 % of control
dose: 100.0 mg/kg/injection, schedule: Q01DX005 (ip), vehicle: saline
  T/C: 105 % of control

## NCCNCC[OH2+].NCCNCC[OH2+].O=S(=O)([O-])[O-].[Cu+2]
dose: 6.25 mg/kg/injection, schedule: Q01DX009 (ip), vehicle: saline
  T/C: 105 % of control
dose: 12.5 mg/kg/injection, schedule: Q01DX009 (ip), vehicle: saline
  T/C: 108 % of control
dose: 25.0 mg/kg/injection, schedule: Q01DX009 (ip), vehicle: saline
  T/C: 103 % of control

## NC(COC(c1ccccc1)(c1ccccc1)c1ccccc1)C(=O)O (stereo not drawn)
dose: 50.0 mg/kg/injection, schedule: Q01DX009 (ip), vehicle: Klucel (hydroxypropylcellulose) (HPC)
  T/C: 120 % of control
dose: 65.0 mg/kg/injection, schedule: Q01DX009 (ip), vehicle: Klucel (hydroxypropylcellulose) (HPC)
  T/C: 150 % of control
dose: 85.0 mg/kg/injection, schedule: Q04DX003 (ip), vehicle: other
  T/C: 120 % of control
[10]
  T/C: 155 % of control and 160 % of control
[7]
  T/C: 122 % of control
dose: 150.0 mg/kg/injection, schedule: Q01DX009 (ip), vehicle: Klucel (hydroxypropylcellulose) (HPC)
  T/C: 205 % of control
[11]
  T/C: 90 % of control
dose: 200.0 mg/kg/injection, schedule: Q04DX003 (ip), vehicle: other
  T/C: 150 % of control
dose: 300.0 mg/kg/injection, schedule: Q04DX003 (ip), vehicle: other
  T/C: 200 % of control

## COc1cc(NS(C)(=O)=O)ccc1Nc1c2ccc([N+](=O)[O-])cc2nc2c(C)cccc12
dose: 0.1 mg/kg/injection, schedule: Q04DX003 (ip), vehicle: saline with Tween-80
  T/C: 112 % of control
dose: 0.2 mg/kg/injection, schedule: Q04DX003 (ip), vehicle: saline with Tween-80
  T/C: 120 % of control
dose: 0.86 mg/kg/injection, schedule: Q04DX003 (ip), vehicle: saline with Tween-80
  T/C: 200 % of control
dose: 1.3 mg/kg/injection, schedule: Q04DX003 (ip), vehicle: saline with Tween-80
  T/C: 165 % of control
dose: 2.0 mg/kg/injection, schedule: Q04DX003 (ip), vehicle: saline with Tween-80
  T/C: 184 % of control
dose: 3.0 mg/kg/injection, schedule: Q04DX003 (ip), vehicle: saline with Tween-80
  T/C: 230 % of control and 204 % of control
dose: 5.0 mg/kg/injection, schedule: Q04DX003 (ip), vehicle: saline with Tween-80
  T/C: 241 % of control
dose: 8.0 mg/kg/injection, schedule: Q04DX003 (ip), vehicle: saline with Tween-80
  T/C: 230 % of control and 241 % of control
dose: 12.0 mg/kg/injection, schedule: Q04DX003 (ip), vehicle: saline with Tween-80
  T/C: 230 % of control
dose: 18.0 mg/kg/injection, schedule: Q04DX003 (ip), vehicle: saline with Tween-80
  T/C: 123 % of control

## CN=Cc1ccc([N+](=O)[O-])cc1
dose: 100.0 mg/kg/injection, schedule: Q01DX001 (ip), vehicle: Klucel (hydroxypropylcellulose) (HPC)
  T/C: 113 % of control
dose: 200.0 mg/kg/injection, schedule: Q01DX001 (ip), vehicle: Klucel (hydroxypropylcellulose) (HPC)
  T/C: 104 % of control

## O=C(O)C1OC1C(=O)O (stereo not drawn)
dose: 75.0 mg/kg/injection, schedule: Q01DX009 (ip), vehicle: saline
  T/C: 90 % of control
dose: 150.0 mg/kg/injection, schedule: Q01DX009 (ip), vehicle: saline
  T/C: 100 % of control
dose: 300.0 mg/kg/injection, schedule: Q01DX009 (ip), vehicle: saline
  T/C: 100 % of control

## C#CC1(OCC2CN(c3ccccc3)C(=O)O2)CCCCC1 (stereo not drawn)
[3]
  T/C: 90 % of control
[7]
  T/C: 100 % of control
[4]
  T/C: 100 % of control
[9]
  T/C: 100 % of control
dose: 400.0 mg/kg/injection, schedule: Q01DX009 (ip), vehicle: saline with Tween-80
  T/C: 109 % of control
dose: 400.0 mg/kg/injection, schedule: Q04DX003 (ip), vehicle: saline
  T/C: 100 % of control

## Cc1cc(C)nc(NS(=O)(=O)c2ccc(NC(=O)C(Cl)(Cl)Cl)cc2)n1
dose: 100.0 mg/kg/injection, schedule: Q01DX005 (ip), vehicle: saline with Tween-80
  T/C: 93 % of control
dose: 200.0 mg/kg/injection, schedule: Q01DX005 (ip), vehicle: saline with Tween-80
  T/C: 88 % of control

## OC1CCCCCCCCC1Cl (stereo not drawn)
[1]
  T/C: 104 % of control
[2]
  T/C: 109 % of control
[3]
  T/C: 100 % of control

## OCCCC1CCCCC1
[5]
  T/C: 111 % of control
[6]
  T/C: 113 % of control
[8]
  T/C: 117 % of control

## COc1ccc(-c2noc(=O)c3ccccc23)cc1
[2]
  T/C: 102 % of control
[3]
  T/C: 100 % of control
[4]
  T/C: 114 % of control

## CC(C)=CCC/C(C)=C\C=N\NS(=O)(=O)c1ccc([N+](=O)[O-])cc1
dose: 6.25 mg/kg/injection, schedule: Q01DX009 (ip), vehicle: saline with Tween-80
  T/C: 99 % of control
dose: 12.5 mg/kg/injection, schedule: Q01DX009 (ip), vehicle: saline with Tween-80
  T/C: 103 % of control
[1]
  T/C: 103 % of control

## COc1cc2c(c(OC)c1OC)-c1ccc(SC)c(=O)cc1[C@@H](NC1OC(CO)C(O)C(O)C1O)CC2 (stereo partly drawn)
[5]
  T/C: 155 % of control
